We go through five molecules from ChEMBL document CHEMBL6087387, “Carbon Monoxide as a Potential Therapeutic Agent: A Molecular Analysis of Its Safety Profiles” (J Med Chem, 2024).

The nature of data set [1]: Plasma concentration in rat at 100 mg/kg, po after 2 hrs. It is filed as ADME, organism-based.
The nature of data set [2]: Plasma concentration in rat at 30 mg/kg, po after 2 hrs.
Data set [3] can be described thus: Plasma concentration in rat at 250 mg/kg, po after 2 hrs. It is filed as ADME, organism-based.

Turning to `CC(=O)O[C@H]1C(=O)[C@@]2(C)[C@H]([C@H](OC(=O)c3ccccc3)[C@]3(O)C[C@H](OC(=O)[C@H](O)[C@@H](NC(=O)c4ccccc4)c4ccccc4)C(C)=C1C3(C)C)[C@]1(OC(C)=O)CO[C@@H]1C[C@@H]2O` [PACLITAXEL], in data set [1], the concentration at 2 h was 3.1 µM. As to `COc1ccc2cc([C@H](C)C(=O)O)ccc2c1` [NAPROXEN], the concentration at 2 h in data set [2] was over 300 µM.

Turning to `COc1cccc2c1C(=O)c1c(O)c3c(c(O)c1C2=O)C[C@@](O)(C(=O)CO)C[C@@H]3O[C@H]1C[C@H](N)[C@H](O)[C@H](C)O1` [DOXORUBICIN], in data set [1], the concentration at 2 h turned out to be 1.15 µM.

For the molecule `O=c1[nH]cc(F)c(=O)[nH]1` [FLUOROURACIL], in data set [3], the concentration at 2 h turned out to be 420 µM. Same read-out and setting: under `O=C(O)c1cn(C2CC2)c2cc(N3CCNCC3)c(F)cc2c1=O` [CIPROFLOXACIN] stands 3.8 µM.
